# Biological target: T1, glucocorticoid receptor (Homo sapiens, UniProt P04150)
# T1 construct: expressed in transfected cells
# T1 sequence (P04150 524-758 limits assumed): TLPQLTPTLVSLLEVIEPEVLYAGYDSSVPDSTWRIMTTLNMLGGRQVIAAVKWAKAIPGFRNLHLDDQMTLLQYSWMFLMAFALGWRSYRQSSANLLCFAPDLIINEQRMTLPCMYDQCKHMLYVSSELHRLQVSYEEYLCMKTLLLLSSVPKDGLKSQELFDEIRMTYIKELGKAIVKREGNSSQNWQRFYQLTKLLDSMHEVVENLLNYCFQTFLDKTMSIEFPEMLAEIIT
# Assay: Agonistic mode of action on the glucocorticoid receptor (CHO-Gal4/GR luciferase reporter cell line)
# Format: cell-based
# Conditions: range class observed in the agonistic assay or the antagonistic assay (CHO-Gal4/GR reporter cells); table does not say which mode applies per example
# How it was run: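 CHO cells stably carrying GAL4 DBD–GR ligand-binding-domain fusion and GAL4-UAS firefly luciferase reporter, 5000 cells/well grown 24 h, then compounds added in Opti-MEM at 8 half-log concentrations from 10 μM to 0.003 μM (0.5% DMSO), quadruplicates. Agonist-induced luminescence read on FLIPR Tetra; EC50 calculated.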
row,IC50 or EC50 (agonist or antagonist mode not specified) [µM],SMILES
1,< 0.1,"Cc1c[nH]c2c(-c3c(F)cc4c(c3C3CC3)-n3c(C)nnc3C(C)(C)N4)cccc12 [Example 463, 9-Cyclopropyl-7-fluoro-1,4,4-trimethyl-8-(3-methyl-1H-indol-7-yl)-5H-[1,2,4]triazolo[4,3-a] quinoxaline]"
2,< 0.1,"Cc1nnc2n1-c1c(cc(F)c(-c3cc(F)cc4c3ccn4C3CC3)c1F)NC2(C)C [Example 2, 8-(1-cyclopropyl-6-fluoro-1H-indol-4-yl)-7,9-difluoro-1,4,4-trimethyl-4,5-dihydro-[1,2,4]triazolo[4,3-a]quinoxaline]"
3,< 0.1,"Cc1c(-c2cc(F)cc3c2ccn3S(C)(=O)=O)c(OC(F)(F)F)cc2c1-n1c(C)nnc1C(C)(C)N2 [Example 403, 8-(6-Fluoro-1-methylsulfonyl-1H-indol-4-yl)-1,4,4,9-tetramethyl-7-(trifluoromethyloxy)-5H-[1,2,4]triazolo[4,3-a]quinoxaline]"
4,< 0.1,"Cc1nnc2n1-c1c(cc(F)c(-c3cc(F)cc4c3ccn4C)c1C(F)F)NC2(C)C [Example 521, 9-(Difluoro-methyl)-7-fluoro-8-(6-fluoro-1-methyl-1H-indol-4-yl)-1,4,4-trimethyl-5H-[1,2,4]triazolo [4,3-a]quinoxaline]"
5,1 to 15,"Cc1nnc2n1-c1c(cc(Cl)c(-c3cccc4c3cnn4C)c1F)NC2(C)C [Example 285, 7-Chloro-9-fluoro-1,4,4-trimethyl-8-(1-methyl-1H-indazol-4-yl)-5H-[1,2,4]triazolo[4,3-a]quinoxaline]"
6,0.1 to 1,"Cc1c(-c2cccc3c(C)n[nH]c23)c(Cl)cc2c1-n1c(C)nnc1C(C)(C)N2 [Example 368, 7-Chloro-1,4,4,9-tetramethyl-8-(3-methyl-1H-indazol-7-yl)-5H-[1,2,4]triazolo[4,3-a]quinoxaline]"
7,0.1 to 1,"COc1cc2c(c(C(F)(F)F)c1-c1cccc3c1ccn3C)-n1c(C)nnc1C(C)(C)N2 [Example 509, 7-Methoxy-1,4,4-trimethyl-8-(1-methyl-1H-indol-4-yl)-9-(trifluoromethyl)-5H-[1,2,4]triazolo[4,3-a]quinoxaline]"
8,0.1 to 1,"Cc1c(-c2ccc(F)c3[nH]ccc23)c(Cl)cc2c1-n1c(C)nnc1C(C)(C)N2 [Example 506, 7-Chloro-8-(7-fluoro-1H-indol-4-yl)-1,4,4,9-tetramethyl-5H-[1,2,4]triazolo[4,3-a]quinoxaline]"
9,0.1 to 1,"Cc1c(-c2cc(F)cc3c2ccn3CCO)ccc2c1-n1c(C)nnc1C(C)(C)N2 [Example 451, 2-[6-Fluoro-4-(1,4,4,9-tetramethyl-5H-[1,2,4]triazolo[4,3-a]quinoxalin-8-yl)-1H-indol-1-yl]-ethanol]"
10,0.1 to 1,"COCCn1ccc2c(-c3c(F)cc4c(c3C(F)F)-n3c(C)nnc3C(C)(C)N4)cc(F)cc21 [Example 402, 9-(Difluoro-methyl)-7-fluoro-8-[6-fluoro-1-(2-methoxy-ethyl)-1H-indol-4-yl]-1,4,4-trimethyl-5H-[1,2,4]triazolo[4,3-a]quinoxaline]"
11,0.1 to 1,"Cc1cc(-c2c(F)cc3c(c2C(F)(F)F)-n2c(C)nnc2C(C)(C)N3)c2ccn(S(C)(=O)=O)c2c1 [Example 476, 7-Fluoro-1,4,4-trimethyl-8-(6-methyl-1-methylsulfonyl-1H-indol-4-yl)-9-(trifluoromethyl)-5H-[1,2,4]triazolo [4,3-a]quinoxaline]"
12,0.1 to 1,"COc1cc2c(c(C(F)(F)F)c1-c1cc(F)cc3c1ccn3C)-n1c(C)nnc1C(C)(C)N2 [Example 517, 8-(6-Fluoro-1-methyl-1H-indol-4-yl)-7-methoxy-1,4,4-trimethyl-9-(trifluoromethyl)-5H-[1,2,4]triazolo [4,3-a]quinoxaline]"
13,< 0.1,"Cc1nnc2n1-c1c(cc(F)c(-c3cccc4c3ccn4S(=O)(=O)CC3CC3)c1F)NC2(C)C [Example 210, 8-[1-(Cyclopropyl-methylsulfonyl)-1H-indol-4-yl]-7,9-difluoro-1,4,4-trimethyl-5H-[1,2,4]triazolo[4,3-a]quinoxaline]"
14,0.1 to 1,"COc1c(-c2cc(C(F)(F)F)cc3[nH]ccc23)c(F)cc2c1-n1c(C)nnc1C(C)(C)N2 [Example 474, 7-Fluoro-9-methoxy-1,4,4-trimethyl-8-[6-(trifluoromethyl)-1H-indol-4-yl]-5H-[1,2,4]triazolo[4,3-a] quinoxaline]"
15,1 to 15,"Cc1nnc2n1-c1c(cc(C(F)F)c(-c3cccc4[nH]ccc34)c1F)NC2(C)C [Example 343, 7-(Difluoro-methyl)-9-fluoro-8-(1H-indol-4-yl)-1,4,4-trimethyl-5H-[1,2,4]triazolo[4,3-a]quinoxaline]"
16,1 to 15,"CCc1nnc2n1-c1c(cc(F)c(-c3cc(F)cc4c3cnn4S(C)(=O)=O)c1C)NC2(C)C [Example 348, 1-Ethyl-7-fluoro-8-(6-fluoro-1-methylsulfonyl-1H-indazol-4-yl)-4,4,9-trimethyl-5H-[1,2,4]triazolo [4,3-a]quinoxaline]"
17,1 to 15,"Cc1nnc2n1-c1c(cc(F)c(-c3cccc4c3cc(C(F)(F)F)n4S(C)(=O)=O)c1F)NC2(C)C [Example 271, 7,9-Difluoro-1,4,4-trimethyl-8-[1-methylsulfonyl-2-(trifluoromethyl)-1H-indol-4-yl]-5H-[1,2,4]triazolo [4,3-a]quinoxaline]"
18,< 0.1,"CCS(=O)(=O)n1ccc2c(-c3c(F)cc4c(c3C(F)F)-n3c(C)nnc3C(C)(C)N4)cccc21 [Example 461, 9-(Difluoro-methyl)-8-[1-(ethylsulfonyl)-1H-indol-4-yl]-7-fluoro-1,4,4-trimethyl-5H-[1,2,4] triazolo[4,3-a]quinoxaline]"
19,0.1 to 1,"Cc1c(-c2cccc3c2ccn3S(C)(=O)=O)c(OC(F)F)cc2c1-n1c(C)nnc1C(C)(C)N2 [Example 318, 7-(Difluoro-methoxy)-1,4,4,9-tetramethyl-8-(1-methylsulfonyl-1H-indol-4-yl)-5H-[1,2,4]triazolo[4,3-a]quinoxaline]"
20,< 0.1,"CCS(=O)(=O)n1ccc2c(-c3c(F)cc4c(c3C(F)(F)F)-n3c(C)nnc3C(C)(C)N4)cccc21 [Example 455, 8-[1-(Ethylsulfonyl)-1H-indol-4-yl]-7-fluoro-1,4,4-trimethyl-9-(trifluoromethyl)-5H-[1,2,4]triazolo[4,3-a]quinoxaline]"
21,0.1 to 1,"Cc1c(-c2cccc3c2ccn3S(C)(=O)=O)ccc2c1-n1c(C)nnc1C(C)(C)N2 [Example 450, 1,4,4,9-tetramethyl-8-(1-(methylsulfonyl)-1H-indol-4-yl)-4,5-dihydro-[1,2,4]triazolo[4,3-a]quinoxaline]"
22,0.1 to 1,"Cc1nnc2n1-c1c(cc(F)c(-c3cccc4cc[nH]c34)c1C(F)(F)F)NC2(C)C [Example 86, 7-fluoro-8-(1H-indol-7-yl)-1,4,4-trimethyl-9-(trifluoromethyl)-4,5-dihydro-[1,2,4]triazolo[4,3-a]quinoxaline]"

# From patent US12110293B2, “Substituted triazolo quinoxaline derivatives” (GRÜNENTHAL GMBH, priority 2018, dated 2024)
